In patent publication US12077503B2, “Substituted cyclic amides and their use as herbicides” (FMC CORPORATION, priority 2015, dated 2024):

Columns and labels:
Format in all cases: in vivo
[1] = tested on: ryegrass, Italian (Italian ryegrass, Lolium multiflorum); experiment: Test A preemergence; conditions: Lolium multiflorum, pre-emergence, 240 h; for pest or weed control at 125 g/ha: 125 g ai/ha, preemergence, 0 to 100 scale where 0 is no effect and 100 is complete control, read-out: Ryegrass, Italian plant response rating; for pest or weed control at 500 g/ha: 500 g ai/ha, Preemergence, visual injury vs untreated controls after approximately 10 d, read-out: Ryegrass, Italian plant response rating (0 to 100 scale where 0 is no effect and 100 is complete control)
How it was run: (§1)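 Treatment is preemergence as a directed soil spray after planting, or postemergence at the one- to two-leaf stage, with test chemical in a non-phytotoxic solvent mixture plus surfactant. Plants stay in the greenhouse about 10 d before visual injury scoring on a 0 to 100 scale versus untreated controls.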

[2] = tested on: Kochia (Kochia scoparia); experiment: Test A preemergence; conditions: Bassia scoparia, pre-emergence, 240 h; for pest or weed control at 125 g/ha: 125 g ai/ha, preemergence, 0 to 100 scale where 0 is no effect and 100 is complete control, read-out: Kochia plant response rating; for pest or weed control at 500 g/ha: 500 g ai/ha, Preemergence, visual injury vs untreated controls after approximately 10 d, read-out: Kochia plant response rating (0 to 100 scale where 0 is no effect and 100 is complete control)
How it was run: as §1

[3] = tested on: ragweed (common ragweed, Ambrosia elatior); experiment: Test A preemergence; conditions: Ambrosia artemisiifolia, pre-emergence, 240 h; for pest or weed control at 125 g/ha: 125 g ai/ha, preemergence, 0 to 100 scale where 0 is no effect and 100 is complete control, read-out: Ragweed plant response rating; for pest or weed control at 500 g/ha: 500 g ai/ha, Preemergence, visual injury vs untreated controls after approximately 10 d, read-out: Ragweed plant response rating (0 to 100 scale where 0 is no effect and 100 is complete control)
How it was run: as §1

[4] = tested on: giant foxtail (Setaria faberii); experiment: Test A preemergence; conditions: Setaria faberi, pre-emergence, 240 h; for pest or weed control at 125 g/ha: 125 g ai/ha, preemergence, 0 to 100 scale where 0 is no effect and 100 is complete control, read-out: Foxtail, Giant plant response rating; for pest or weed control at 500 g/ha: 500 g ai/ha, Preemergence, visual injury vs untreated controls after approximately 10 d, read-out: Foxtail, Giant plant response rating (0 to 100 scale where 0 is no effect and 100 is complete control)
How it was run: as §1

[5] = tested on: pigweed (Amaranthus retroflexus); experiment: Test A preemergence; conditions: Amaranthus retroflexus, pre-emergence, 240 h; for pest or weed control at 125 g/ha: 125 g ai/ha, preemergence, 0 to 100 scale where 0 is no effect and 100 is complete control, read-out: Pigweed plant response rating; for pest or weed control at 500 g/ha: 500 g ai/ha, Preemergence, visual injury vs untreated controls after approximately 10 d, read-out: Pigweed plant response rating (0 to 100 scale where 0 is no effect and 100 is complete control)
[6] = tested on: barnyardgrass (Echinochloa crus-galli); experiment: Test A preemergence; conditions: Echinochloa crus-galli, pre-emergence, 240 h; for pest or weed control at 125 g/ha: 125 g ai/ha, preemergence, 0 to 100 scale where 0 is no effect and 100 is complete control, read-out: Barnyardgrass plant response rating; for pest or weed control at 500 g/ha: 500 g ai/ha, Preemergence, visual injury vs untreated controls after approximately 10 d, read-out: Barnyardgrass plant response rating (0 to 100 scale where 0 is no effect and 100 is complete control)
How it was run: as §1

[7] = tested on: ryegrass, Italian (Italian ryegrass, Lolium multiflorum); experiment: Test A postemergence; conditions: Lolium multiflorum, post-emergence, 240 h, 125 g ai/ha, postemergence, visual injury rating after approximately 10 d; read-out: Ryegrass, Italian plant response rating (0 to 100 scale, 0 no effect, 100 complete control)
How it was run: as §1

[8] = tested on: Kochia (Kochia scoparia); experiment: Test A postemergence; conditions: Bassia scoparia, post-emergence, 240 h, 125 g ai/ha, postemergence, visual injury rating after approximately 10 d; read-out: Kochia plant response rating (0 to 100 scale, 0 no effect, 100 complete control)
How it was run: as §1

[9] = tested on: blackgrass (Alopecurus myosuroides); experiment: Test A postemergence; conditions: Alopecurus myosuroides, post-emergence, 240 h, 125 g ai/ha, postemergence, visual injury rating after approximately 10 d; read-out: Blackgrass plant response rating (0 to 100 scale, 0 no effect, 100 complete control)
How it was run: as §1

[10] = tested on: ragweed (common ragweed, Ambrosia elatior); experiment: Test A postemergence; conditions: Ambrosia artemisiifolia, post-emergence, 240 h, 125 g ai/ha, postemergence, visual injury rating after approximately 10 d; read-out: Ragweed plant response rating (0 to 100 scale, 0 no effect, 100 complete control)
How it was run: as §1

[11] = tested on: wheat (Triticum aestivum); experiment: Test A postemergence; conditions: Triticum aestivum, post-emergence, 240 h, 125 g ai/ha, postemergence, visual injury rating after approximately 10 d; read-out: Wheat plant response rating (0 to 100 scale, 0 no effect, 100 complete control)
How it was run: as §1

[12] = tested on: giant foxtail (Setaria faberii); experiment: Test A postemergence; conditions: Setaria faberi, post-emergence, 240 h, 125 g ai/ha, postemergence, visual injury rating after approximately 10 d; read-out: Foxtail, Giant plant response rating (0 to 100 scale, 0 no effect, 100 complete control)
How it was run: as §1

[13] = tested on: pigweed (Amaranthus retroflexus); experiment: Test A postemergence; conditions: Amaranthus retroflexus, post-emergence, 240 h, 125 g ai/ha, postemergence, visual injury rating after approximately 10 d; read-out: Pigweed plant response rating (0 to 100 scale, 0 no effect, 100 complete control)
How it was run: as §1

[14] = tested on: Galium (catchweed bedstraw, Galium aparine); experiment: Test A postemergence; conditions: Galium, post-emergence, 240 h, 125 g ai/ha, postemergence, visual injury rating after approximately 10 d; read-out: Galium plant response rating (0 to 100 scale, 0 no effect, 100 complete control)
How it was run: as §1

[15] = tested on: barnyardgrass (Echinochloa crus-galli); experiment: Test A postemergence; conditions: Echinochloa crus-galli, post-emergence, 240 h, 125 g ai/ha, postemergence, visual injury rating after approximately 10 d; read-out: Barnyardgrass plant response rating (0 to 100 scale, 0 no effect, 100 complete control)
How it was run: as §1

[16] = tested on: corn (Zea mays); experiment: Test A postemergence; conditions: Zea mays, post-emergence, 240 h, 125 g ai/ha, postemergence, visual injury rating after approximately 10 d; read-out: Corn plant response rating (0 to 100 scale, 0 no effect, 100 complete control)
How it was run: as §1

Row | SMILES | pest or weed control at 125 g/ha [1] | pest or weed control at 500 g/ha [1] | pest or weed control at 125 g/ha [2] | pest or weed control at 500 g/ha [2] | pest or weed control at 125 g/ha [3] | pest or weed control at 500 g/ha [3] | pest or weed control at 125 g/ha [4] | pest or weed control at 500 g/ha [4] | pest or weed control at 125 g/ha [5] | pest or weed control at 500 g/ha [5] | pest or weed control at 125 g/ha [6] | pest or weed control at 500 g/ha [6] | pest or weed control at 125 g/ha [7] | pest or weed control at 125 g/ha [8] | pest or weed control at 125 g/ha [9] | pest or weed control at 125 g/ha [10] | plant injury at 125 g/ha [11] | pest or weed control at 125 g/ha [12] | pest or weed control at 125 g/ha [13] | pest or weed control at 125 g/ha [14] | further results
1 | COc1cc([C@H]2CN(C)C(=O)[C@@H]2C(=O)Nc2ccccc2SC)cc(C(F)(F)F)c1 [Compound 857] | 40% | 60% | 0% | 30% | 0% | 30% | 80% | 90% | 60% | 70% | 90% | 90% | 20% | 20% | 30% | 0% | 30% | 70% | 30% | 20% | pest or weed control at 125 g/ha [15]: 70%; plant injury at 125 g/ha [16]: 40%
2 | COc1cc(C(F)(F)F)ccc1[C@H]1CN(C)C(=O)[C@@H]1C(=O)Nc1ccccc1F [Compound 858] | 30% | 70% | 60% | 70% | 0% | 30% | 90% | 90% | 20% | 50% | 90% | 90% | 20% | 20% | 0% | 0% | 20% | 80% | 20% | 30% | pest or weed control at 125 g/ha [15]: 80%; plant injury at 125 g/ha [16]: 20%
3 | CSc1ccccc1NC(=O)[C@H]1C(=O)N(C)C[C@@H]1c1cccc(OC(F)(F)C(F)F)c1 [Compound 862] | 0% | 20% | 70% | 70% | 90% | 100% | 90% | 90% | 80% | 90% | 90% | 100% | 20% | 40% | 0% | 0% | 0% | 60% | 60% | 60% | pest or weed control at 125 g/ha [15]: 30%; plant injury at 125 g/ha [16]: 20%
4 | Cc1c(F)cccc1NC(=O)[C@H]1C(=O)N(C)C[C@@H]1c1cc(F)c(F)c(F)c1 [Compound 867] | 60% | 60% | 50% | 70% | 0% | 30% | 90% | 90% | 0% | 30% | 90% | 90% | 20% | 0% | 30% | 0% | 20% | 80% | 0% | 30% | pest or weed control at 125 g/ha [15]: 90%; plant injury at 125 g/ha [16]: 60%
5 | CN1C[C@H](c2cc(F)cc(F)c2)[C@@H](C(=O)Nc2ncc(C(F)(F)F)cc2F)C1=O [Compound 868] | 0% | 0% | 0% | 0% | 0% | 0% | 20% | 60% | 0% | 0% | 30% | 60% | 0% | 0% | 0% | 0% | 0% | 0% | 0% | 0% | pest or weed control at 125 g/ha [15]: 20%; plant injury at 125 g/ha [16]: 0%
6 | CN1C[C@H](c2cc(F)cc(F)c2)[C@@H](C(=O)Nc2ccccc2[S@@+](C)[O-])C1=O [Compound 872] | 0% | 40% | 0% | 80% | 60% | 100% | 90% | 90% | 0% | 60% | 90% | 100% | 0% | 50% | 20% | 0% | 20% | 80% | 30% | 50% | pest or weed control at 125 g/ha [15]: 90%; plant injury at 125 g/ha [16]: 30%
